Results on 23 molecules are retold here after patent US20260250290A1 (BRISTOL-MYERS SQUIBB COMPANY, priority 2023, published 2026).

Structures can show the parent of a compound that is named as a salt.

The target of this test is T1, full length SGK1 (Homo sapiens, UniProt O00141).
T1 construct: 125 μM full length SGK1 (Life Technologies Part #PR7358A); purchased Life Technologies PR7358A
T1 sequence (O00141 1-431): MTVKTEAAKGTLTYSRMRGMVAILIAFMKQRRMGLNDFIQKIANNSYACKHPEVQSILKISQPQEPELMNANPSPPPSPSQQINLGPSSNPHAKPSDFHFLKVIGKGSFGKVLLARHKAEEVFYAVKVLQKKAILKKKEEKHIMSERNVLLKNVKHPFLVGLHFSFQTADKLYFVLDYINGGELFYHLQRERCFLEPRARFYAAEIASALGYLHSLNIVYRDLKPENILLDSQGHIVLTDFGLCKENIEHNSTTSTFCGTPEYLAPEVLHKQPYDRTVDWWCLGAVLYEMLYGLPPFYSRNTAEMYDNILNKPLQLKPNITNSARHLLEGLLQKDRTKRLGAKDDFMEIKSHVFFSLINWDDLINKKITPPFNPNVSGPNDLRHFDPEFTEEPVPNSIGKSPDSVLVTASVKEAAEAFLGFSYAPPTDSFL
The test is described as follows: SGK1 inhibition Assay A (Caliper LabChip electrophoretic separation of fluorescent peptide substrate and phosphorylated product). The class given is biochemical. The following applies: Assay A; 20 μM ATP, 40 min incubation; read-out: SGK1 IC50.
With `CC(=O)N1CC=C(c2cc(N3CCC[C@@H](NC(=O)c4sc(Cl)cc4OC4CC5(C4)CN(C)C5)C3)c3c(N)ncnn23)C1` [Example 581, (R)-N-(1-(7-(1-acetyl-2,5-dihydro-1H-pyrrol-3-yl)-4-aminopyrrolo[2,1-f][1,2,4]triazin-5-yl)piperidin-3-yl)-5-chloro-3-((2-methyl-2-azaspiro[3.3]heptan-6-yl)oxy)thiophene-2-carboxamide], the IC50 was determined as 0.004 µM.
For the molecule `CS(=O)(=O)N1CC=C(c2cc(N3CCC[C@@H](NC(=O)c4ccns4)C3)c3c(N)ncnn23)C1` [Example 112, (R)—N-(1-(4-amino-7-(1-(methylsulfonyl)-2,5-dihydro-1H-pyrrol-3-yl)pyrrolo[2,1-f][1,2,4]triazin-5-yl)piperidin-3-yl)isothiazole-5-carboxamide, TFA], the IC50 is 0.004 µM.
For `CN(C)CCOc1cc(Cl)sc1C(=O)N[C@@H]1CCCN(c2cc(C3=CCN(C(=O)C4CC(F)(F)C4)C3)n3ncnc(N)c23)C1` [Example 179, (R)-N-(1-(4-amino-7-(1-(3,3-difluorocyclobutane-1-carbonyl)-2,5-dihydro-1H-pyrrol-3-yl)pyrrolo[2,1-f][1,2,4]triazin-5-yl)piperidin-3-yl)-5-chloro-3-(2-(dimethylamino)ethoxy) thiophene-2-carboxamide, 2 TFA], the IC50 is 0.008 µM.
For the molecule `COc1cc(C(=O)N[C@@H]2CCCN(c3cc(C4=CCN(S(C)(=O)=O)C4)n4ncnc(N)c34)C2)ccn1` [Example 114, (R)—N-(1-(4-amino-7-(1-(methylsulfonyl)-2,5-dihydro-1H-pyrrol-3-yl)pyrrolo[2,1-f][1,2,4]triazin-5-yl)piperidin-3-yl)-2-methoxyisonicotinamide], the IC50 is 0.016 µM.
With `Nc1ncnn2c(C3=CCN(C(=O)C4CCNCC4)C3)cc(N3CCC[C@@H](NC(=O)c4ccc(Cl)s4)C3)c12` [Example 894, (R)-N-(1-(4-amino-7-(1-(piperidine-4-carbonyl)-2,5-dihydro-1H-pyrrol-3-yl)pyrrolo[2,1-f][1,2,4]triazin-5-yl)piperidin-3-y1)-5-chlorothiophene-2-carboxamide] the figure was 0.014 µM; with `CN(C)CCOc1cc(Cl)sc1C(=O)N[C@@H]1CCCN(c2cc(-c3ccc(=O)n(CC(F)F)c3)n3ncnc(N)c23)C1` [Example 281, (R)-N-(1-(4-amino-7-(1-(2,2-difluoroethyl)-6-oxo-1,6-dihydropyridin-3-yl)pyrrolo[2,1-f][1,2,4]triazin-5-yl)piperidin-3-yl)-5-chloro-3-(2-(dimethylamino)ethoxy) thiophene-2-carboxamide], 0.004 µM.
Under `CC(=O)N1CC=C(c2cc(N3CCC[C@@H](NC(=O)c4cccc(OCCN5CCOCC5)n4)C3)c3c(N)ncnn23)C1` [Example 700, (R)—N-(1-(7-(1-acetyl-2,5-dihydro-1H-pyrrol-3-yl)-4-aminopyrrolo[2,1-f][1,2,4]triazin-5-yl)piperidin-3-yl)-6-(2-morpholinoethoxy)picolinamide] stands 0.025 µM.
Regarding `CS(=O)(=O)c1ccc(-c2cc(N3CCC[C@@H](NC(=O)c4ccncn4)C3)c3c(N)ncnn23)cc1` [Example 31, (R)-N-(1-(4-amino-7-(4-(methylsulfonyl)phenyl)pyrrolo[2,1-f][1,2,4]triazin-5-yl)piperidin-3-yl)pyrimidine-4-carboxamide], the IC50 was 0.112 µM.
With `COc1cc(-c2cc(N3CCC[C@@H](NC(=O)c4cccc(N5CCN(C)CC5)n4)C3)c3c(N)ncnn23)ccn1` [Example 786, (R)-N-(1-(4-amino-7-(2-methoxypyridin-4-yl)pyrrolo[2,1-f][1,2,4]triazin-5-yl)piperidin-3-yl)-6-(4-methylpiperazin-1-yl)picolinamide] the figure was 0.006 µM; with `CN1CC=C(c2cc(C(F)F)sc2C(=O)N[C@@H]2CCCN(c3cc(-c4ccc(C(N)=O)c(F)c4)n4ncnc(N)c34)C2)CC1` [Example 323, (R)—N-(1-(4-amino-7-(4-carbamoyl-3-fluorophenyl)pyrrolo[2,1-f][1,2,4]triazin-5-yl)piperidin-3-yl)-5-(difluoromethyl)-3-(1-yl)-5-(difluoromethyl)-3-(1-methyl-1,2,3,6-tetrahydropyridin-4-yl)thiophene-2-carboxamide], 0.019 µM.
With `COCCNC(=O)c1ccc(-c2cc(N3CCC[C@@H](NC(=O)c4ccc(Cl)s4)C3)c3c(N)ncnn23)cc1` [Example 224, (R)-N-(1-(4-amino-7-(4-((2-methoxyethyl)carbamoyl)phenyl)pyrrolo[2,1-f][1,2,4]triazin-5-yl)piperidin-3-yl)-5-chlorothiophene-2-carboxamide] the figure was 0.011 µM; with `COc1ccc(C)cc1C(=O)N[C@@H]1CCCN(c2cc(-c3ccc(S(C)(=O)=O)cc3)n3ncnc(N)c23)C1` [Example 57, (R)-N-(1-(4-amino-7-(4-(methylsulfonyl)phenyl)pyrrolo[2,1-f][1,2,4]triazin-5-yl)piperidin-3-yl)-2-methoxy-5-methylbenzamide, TFA], 0.112 µM; with “Methyl (R)-3-(4-amino-5-(3- (5-(difluoromethyl)-3- morpholinothiophene-2- carboxamido)piperidin-1- yl)pyrrolo[2,1-f][1,2,4]triazin- 7-yl)-2,5-dihydro-1H-pyrrole- 1-carboxylate [Example 320]”, 0.025 µM.
With `CS(=O)(=O)N1CC=C(c2cc(N3CCC[C@@H](NC(=O)c4ccnc(F)c4)C3)c3c(N)ncnn23)C1` [Example 117, (R)—N-(1-(4-amino-7-(1-(methylsulfonyl)-2,5-dihydro-1H-pyrrol-3-yl)pyrrolo[2,1-f][1,2,4]triazin-5-yl)piperidin-3-yl)-2-fluoroisonicotinamide, TFA] the figure was 0.006 µM.
With `CC(=O)N1CC=C(c2cc(N3CCC[C@@H](NC(=O)c4sc(Cl)cc4OCCN4CCNCC4)C3)c3c(N)ncnn23)C1` [Example 298, (R)-N-(1-(7-(1-acetyl-2,5-dihydro-1H-pyrrol-3-yl)-4-aminopyrrolo[2,1-f][1,2,4]triazin-5-yl)piperidin-3-yl)-5-chloro-3-(2-(piperazin-1-yl)ethoxy)thiophene-2-carboxamide], the IC50 was 0.014 µM.
Under `CS(=O)(=O)c1ccc(-c2cc(N3CCC[C@@H](NC(=O)c4ccnc(C#N)c4)C3)c3c(N)ncnn23)cc1` [Example 47, (R)-N-(1-(4-amino-7-(4-(methylsulfonyl)phenyl)pyrrolo[2,1-f][1,2,4]triazin-5-yl)piperidin-3-yl)-2-cyanoisonicotinamide, TFA] stands 0.044 µM; under `COC(=O)N1CC=C(c2cc(N3CCC[C@@H](NC(=O)c4sc(Cl)cc4OC4CCN(C5CC5)CC4)C3)c3c(N)ncnn23)C1` [Example 616, methyl (R)-3-(4-amino-5-(3-(5-chloro-3-((1-cyclopropylpiperidin-4-yl)oxy)thiophene-2-carboxamido)piperidin-1-yl)pyrrolo[2,1-f][1,2,4]triazin-7-yl)-2,5-dihydro-1H-pyrrole-1-carboxylate], 0.006 µM.
Under `Nc1ncnn2c(-c3cnccn3)cc(N3CCC[C@@H](NC(=O)c4ccc(Cl)s4)C3)c12` [Example 535, (R)-N-(1-(4-amino-7-(pyrazin-2-yl)pyrrolo[2,1-f][1,2,4]triazin-5-yl)piperidin-3-yl)-5-chlorothiophene-2-carboxamide] stands 0.058 µM; under `COC(=O)N1CC=C(c2cc(N3CCC[C@@H](NC(=O)c4sc(C(F)F)cc4OC4CCN(C(C)=O)CC4)C3)c3c(N)ncnn23)C1` [Example 411, methyl (R)-3-(5-(3-(3-((1-acetylpiperidin-4-yl)oxy)-5-(difluoromethyl)thiophene-2-carboxamido)piperidin-1-yl)-4-aminopyrrolo[2,1-f][1,2,4]triazin-7-yl)-2,5-dihydro-1H-pyrrole-1-carboxylate], 0.005 µM.
Under `Nc1ncnn2c(-c3ccnc(C(F)F)c3)cc(N3CCC[C@@H](NC(=O)c4sc(Cl)cc4OCCN4CCOCC4)C3)c12` [Example 341, (R)—N-(1-(4-amino-7-(2-(difluoromethyl)pyridin-4-yl)pyrrolo[2,1-f][1,2,4]triazin-5-yl)piperidin-3-yl)-5-chloro-3-(2-morpholinoethoxy)thiophene-2-carboxamide] stands 0.002 µM; under `COC(=O)N1CC=C(c2cc(N3CCC[C@@H](NC(=O)c4sc(Cl)cc4OC4CCNC4)C3)c3c(N)ncnn23)C1` (stereo partly drawn) [Example 569, Methyl 3-(4-amino-5-((3R)-3-(5-chloro-3-(pyrrolidin-3-yloxy)thiophene-2-carboxamido)piperidin-1-yl)pyrrolo[2,1-f][1,2,4]triazin-7-yl)-2,5-dihydro-1H-pyrrole-1-carboxylate], 0.003 µM; under `CC(=O)N1CC=C(c2cc(N3CCC[C@@H](NC(=O)c4cccc(NC5CN(C)C5)n4)C3)c3c(N)ncnn23)C1` [Example 766, (R)-N-(1-(7-(1-acetyl-2,5-dihydro-1H-pyrrol-3-yl)-4-aminopyrrolo[2,1-f][1,2,4]triazin-5-yl)piperidin-3-yl)-6-((1-methylazetidin-3-yl)amino)picolinamide], 0.679 µM.
Consider `COc1nc(C)c(C(=O)N[C@@H]2CCCN(c3cc(C4=CCN(C(C)=O)C4)n4ncnc(N)c34)C2)s1` [Example 474, (R)-N-(1-(7-(1-acetyl-2,5-dihydro-1H-pyrrol-3-yl)-4-aminopyrrolo[2,1-f][1,2,4]triazin-5-yl)piperidin-3-yl)-2-methoxy-4-methylthiazole-5-carboxamide], for which the IC50 is 0.045 µM.
